In brackets after ≈: the same amount, converted by molar mass. Several values for one entry are separate records, joined by “and”; a condition that tells them apart may be missing. Equal values may be shown once. Read-outs that look alike come from different tables or passages of the source.

Assay [1] concerns Enterotoxigenic Escherichia coli (ETEC) strain H10407. As to the kind of experiment: Growth of ETEC strain H10407 with rifaximin in the presence and absence of bile acids (OD600 / cell density). The class given is cell-based.
For assay [2] the test system is unchanged. Described as above. Format: cell-based. How it is done: Enterotoxigenic Escherichia coli (ETEC) strain H10407 was used as a model bacteria in all the susceptibility experiments.
Equimolar concentrations (0.67 mM) of each of these bile acids were pooled (4 mM total bile acids) for the experiments. In order to determine the Total Human Bile Concentration, a sample of human bile taken after cholecystectomy was kindly provided by Dr. David Graham (Department of Medicine, Veterans Affairs Medical Center and the Division of Molecular Virology, Baylor College of Medicine, Houston, Tex., and Director of Study Design and Clinical Research Core, Texas Medical Center Digestive Disease. Center). The total bile acids concentration was determined using the Diazyme Total Bile Acids assay (Diazyme Laboratories, CA) following the protocol provided by the manufacturer.
In each experiment, an overnight culture of E. coli H10407 was added to the LB media to OD600 of 0.04 (approximately 4×10^7 cells/mL) and incubated for 4-6 hours at 37° C. in a shaker at 200 rpm. Optical density measurements (OD600) were determined every 30 minutes. The experiment was replicated four times and average OD used for the analysis. […]
This is another data set of the same source.

The subject of assay [3] is Enteroaggregative E. coli. As to the kind of experiment: Growth (OD600) and total protein of Enteroaggregative E. coli with rifaximin and bile acids. The class given is cell-based. The note with it: 16 μg/mL rifaximin + 4 mM total bile acids. On the procedure: A second culture of Enteroaggregative E. coli bacteria in LB media to which was added 4 mM of bile acids (comprising an equimolar mixture of each of the bile acids: cholic, deoxycholic, chenodeoxycholic, glycocholic, lithocholic, and taurocholic acids at pH 7.4).

The subject of assay [4] is Salmonella enterica (ATCC #14028). Kind of assay: Minimal inhibitory concentration (MIC), Salmonella enterica. Format: cell-based. Conditions: ATCC14028.
The subject of a further assay is coliform flora. Conditions: cited from earlier work.
The test system of assay [5] is beta-galactosidase expressed by E. coli H10407. As to the kind of experiment: Beta-galactosidase assay (IPTG-induced expression, Miller Units). Format: cell-based, Escherichia coli. Conditions: rifaximin added to the culture medium (8, 16, 32 μg/mL), no bile acids. How it is done: Beta-Galactosidase Assay: Beta-galactosidase is an essential enzyme required by E. coli to metabolize lactose during conditions when available glucose levels are low, but lactose levels are high. When expression of beta-galactosidase is inhibited in a media containing limiting amounts of glucose but high amounts of lactose, once the glucose in the media is exhausted bacterial death occurs. […] To, 1.5 mL microfuge tubes, 50 μL of the induced culture was added to 200 μL of permeabilization solution (0.8 mg/mL hexadecyl trimethylammonium bromide (CTAB), 0.4 mg/mL sodium deoxycholate, 200 mM dibasic sodium phosphate (Na2HPO4), 20 mM potassium chloride (KCl), 2 mM magnesium sulfate (MgSO4), and 5.4 μL/mL beta-mercaptoethanol. After 30 minutes incubation at 30° C., 600 μL of substrate solution (60 mM Na2HPO4, 40 mM NaH2PO4, 10 mM KCl, 20 μg/mL CTAB, 1 mg/mL O-nitrophenyl-β-D-galactoside (ONPG), and 2.7 μL/mL β-mercaptoethanol) was added and the time of addition was recorded. The incubation was allowed to continue at 30° C. for 40 minutes, after which 350 μL of 2 M sodium carbonate (Na2CO3) was added to stop the reaction. The assay, tubes were centrifuged at 15000×g for 15 minutes and absorbance measurements at 420 nm were made in triplicate using the supernatants.
The concentration of β-galactosidase in Miller Units was calculated as: […]

Another assay concerns Clostridium difficile. Conditions: cited from earlier work.
The subject of assay [6] is Shigella flexneri (serotype 2B). As to the kind of experiment: Minimal inhibitory concentration (MIC), Shigella flexneri. Format: cell-based.
The test system of assay [7] is Salmonella enterica (ATCC #14028). Kind of assay: Growth (OD600) and total protein of Salmonella enterica with rifaximin and bile acids. The class given is cell-based. The note with it: 32 μg/mL rifaximin + 4 mM total bile acids. On the procedure: A second culture of Salmonella enterica bacteria in LB media to which was added 4 mM of bile acids (comprising an equimolar mixture of each of the bile acids: cholic, deoxycholic, chenodeoxycholic, glycocholic, lithocholic, and taurocholic acids at pH 7.4).

The subject of assay [8] is Enteroaggregative E. coli. Kind of assay: Minimal inhibitory concentration (MIC), Enteroaggregative E. coli. The class given is cell-based. Conditions: Escherichia coli; Enteroaggregative strain of E. coli used.
The subject of the next assay is E. coli H10407. Kind of assay: Total protein content of bacteria treated with rifaximin and bile acids (Bradford assay). The note with it: 16 μg/mL rifaximin + bile acids vs rifaximin without bile acids; 4 hours incubation. The class given is cell-based, Escherichia coli. On the procedure: Aliquots (1 mL) of the culture in each tube were taken every hour for total protein determination. In order to lyse the cells and release the protein, 300 μL of permeabilization solution (2.4 mg/mL hexadecyl trimethylammonium bromide, 1.2 mg/mL sodium deoxycholate, 600 mM dibasic sodium phosphate, 60 mM potassium chloride, 6 mM magnesium sulfate, and 16 μL/mL beta-mercaptoethanol) was added. The tubes were incubated for one hour at room temperature and then centrifuged at 15000×g for 20 minutes. The protein concentration was determined in triplicate using the Bradford assay (Bradford, M. M., A rapid and sensitive method for the quantitation of microgram quantities of protein utilizing the principle of protein-dye binding. Anal Biochem. 72:248-54, 1976) using bovine serum albumin (BSA) as the standard. Each experiment was repeated three times with the average and standard deviation reported.

Assay [9] concerns Enterotoxigenic Escherichia coli (ETEC) strain H10407. Conditions: cited from earlier work.
For assay [10], the system named is Shigella flexneri (serotype 2B). As to the kind of experiment: Growth (OD600) and total protein of Shigella flexneri with rifaximin and bile acids. The note with it: 32 μg/mL rifaximin + 4 mM total bile acids. The class given is cell-based. On the procedure:
A second culture of Shigella flexneri (serotype 2B) bacteria in LB media to which was added 4 mM of bile acids (comprising an equimolar mixture of each of the bile acids: cholic, deoxycholic, chenodeoxycholic, glycocholic, lithocholic, and taurocholic acids at pH 7.4).

Setting [11] is: bile acid alone, no rifaximin, after 4 hours of incubation.
Where [12] appears, read: 4 mM bile acid + 16 μg/mL rifaximin vs 16 μg/mL rifaximin alone, 4 hours.
Where [13] appears, read: bile acid 4 mM combined with 16 μg/mL rifaximin, after 4 hours of incubation.

For the compound `C[C@H](CCC(=O)O)[C@H]1CC[C@H]2[C@@H]3[C@H](O)C[C@@H]4C[C@H](O)CC[C@]4(C)[C@H]3CC[C@]12C` [Chenodeoxycholic acid], the “Cell density, 4 mM BILE ACIDS” value in assay [1] (setting [11]) is recorded as 7.0 ± 0.06 ×10^8 bacteria/milliliter of c. In addition, the “PERCENT DECREASE IN CELL DENSITY ON ADDITION OF BILE ACIDS TO RIFAXIMIN” value is on record as 89.2 ± 0.49% in [2] (setting [12]) and 89.2% in assay [2] (4 mM bile acid + 16 μg/mL rifaximin vs 16 μg/mL rifaximin alone, 4 hours, listed as chenodeoxycholic acid). Moreover, the “Cell density, 4 mM BILE ACIDS + 16 μg/mL RIFAXIMIN” value in assay [2] (setting [13]) is recorded as 0.53 ± 0.51 ×10^8 bacteria/milliliter of c.

Turning to `C[C@H](CCC(=O)O)[C@H]1CC[C@H]2[C@@H]3[C@H](O)C[C@@H]4C[C@H](O)CC[C@]4(C)[C@H]3C[C@H](O)[C@]12C` [Cholic acid], the “Cell density, 4 mM BILE ACIDS” value in [1] (setting [11]) is 11 ± 0.46 ×10^8 bacteria/milliliter of c. Also, the “PERCENT DECREASE IN CELL DENSITY ON ADDITION OF BILE ACIDS TO RIFAXIMIN” value in assay [2] (setting [12]) turned out to be 95.5 ± 0.80%; in [2] (4 mM bile acid + 16 μg/mL rifaximin vs 16 μg/mL rifaximin alone, 4 hours, listed as cholic acid), 95.5%. The “Cell density, 4 mM BILE ACIDS + 16 μg/mL RIFAXIMIN” value in assay [2] (setting [13]) is reported as 0.22 ± 0.20 ×10^8 bacteria/milliliter of c.

Regarding `C[C@H](CCC(=O)O)[C@H]1CC[C@H]2[C@@H]3CC[C@@H]4C[C@H](O)CC[C@]4(C)[C@H]3C[C@H](O)[C@]12C` [Deoxycholic acid], in assay [1] (setting [11]), the “Cell density, 4 mM BILE ACIDS” value is listed as 3.9 ± 0.34 ×10^8 bacteria/milliliter of c. The “PERCENT DECREASE IN CELL DENSITY ON ADDITION OF BILE ACIDS TO RIFAXIMIN” value was determined as 93.8 ± 0.51% in assay [2] (setting [12]) and 93.8% in assay [2] (4 mM bile acid + 16 μg/mL rifaximin vs 16 μg/mL rifaximin alone, 4 hours, listed as deoxycholic acid). Moreover, in [2] (setting [13]), the “Cell density, 4 mM BILE ACIDS + 16 μg/mL RIFAXIMIN” value was 0.30 ± 0.49 ×10^8 bacteria/milliliter of c.

In the case of `C[C@H](CCC(=O)NCC(=O)O)[C@H]1CC[C@H]2[C@@H]3[C@H](O)C[C@@H]4C[C@H](O)CC[C@]4(C)[C@H]3C[C@H](O)[C@]12C` [Glycocholic acid], the “Cell density, 4 mM BILE ACIDS” value in assay [1] (setting [11]) was 14 ± 0.32 ×10^8 bacteria/milliliter of c. Further, the “PERCENT DECREASE IN CELL DENSITY ON ADDITION OF BILE ACIDS TO RIFAXIMIN” value in [2] (setting [12]) worked out at 80.8 ± 0.40%; in assay [2] (4 mM bile acid + 16 μg/mL rifaximin vs 16 μg/mL rifaximin alone, 4 hours, listed as glycocholic acid), 80.8%. In [2] (setting [13]), the “Cell density, 4 mM BILE ACIDS + 16 μg/mL RIFAXIMIN” value is 0.94 ± 0.60 ×10^8 bacteria/milliliter of c.

Consider `C[C@H](CCC(=O)O)[C@H]1CC[C@H]2[C@@H]3CC[C@@H]4C[C@H](O)CC[C@]4(C)[C@H]3CC[C@]12C` [Lithocholic acid], for which, in assay [1] (setting [11]), the “Cell density, 4 mM BILE ACIDS” value was 6.6 ± 0.25 ×10^8 bacteria/milliliter of c. In addition, the “PERCENT DECREASE IN CELL DENSITY ON ADDITION OF BILE ACIDS TO RIFAXIMIN” value in [2] (setting [12]) is on record as 43.9 ± 0.73%; in [2] (4 mM bile acid + 16 μg/mL rifaximin vs 16 μg/mL rifaximin alone, 4 hours, listed as lithocholic acid) it was 43.9%. In assay [2] (setting [13]), the “Cell density, 4 mM BILE ACIDS + 16 μg/mL RIFAXIMIN” value is on record as 2.8 ± 0.27 ×10^8 bacteria/milliliter of c.

Consider `C[C@H](CCC(=O)NCCS(=O)(=O)O)[C@H]1CC[C@H]2[C@@H]3[C@H](O)C[C@@H]4C[C@H](O)CC[C@]4(C)[C@H]3C[C@H](O)[C@]12C` [Taurocholic acid], for which, in assay [1], the “Cell density, 4 mM BILE ACIDS” value is on record as 14 ± 0.51. Besides, in assay [2], the “Cell density, 4 mM BILE ACIDS + 16 μg/mL RIFAXIMIN” value is 1.1 ± 0.23; the “PERCENT DECREASE IN CELL DENSITY ON ADDITION OF BILE ACIDS TO RIFAXIMIN” value is 77.6% and 77.6 ± 0.77%.

Take `CO[C@H]1/C=C/O[C@@]2(C)Oc3c(C)c(O)c4c(O)c(c5c(nc6cc(C)ccn65)c4c3C2=O)NC(=O)/C(C)=C\C=C\[C@H](C)[C@H](O)[C@@H](C)[C@@H](O)[C@@H](C)[C@H](OC(C)=O)[C@@H]1C` [rifaximin, Rifaximin]: the “effect of adding bile acids to rifaximin on growth and protein synthesis” value in [3] is “increases its ability to inhibit the growth and protein synthesis”; in [7], “increases its ability to inhibit the growth and protein synthesis”; in assay [10] it was “increases its ability to inhibit the growth and protein synthesis”. The MIC in assay [4] was 64 µg/mL (≈ 81.4 µM); in the assay on Clostridium difficile, 0.025 µg/mL (≈ 0.0318 µM); in [6], 64 µg/mL (≈ 81.4 µM); in assay [8], 32 µg/mL (≈ 40.7 µM). Also, the “average MICs of most coliform flora” value in the assay with coliform flora was “about 32 μg/mL”. Also, in assay [5], the “amount of beta-galactosidase produced vs control” value is listed as “decreased in a dose-dependent fashion below the control values”. In [2] (16 μg/mL rifaximin, absence of bile acids), the “inhibition of bacterial growth by rifaximin alone” value was “statistically significant (p=0.026, n=4) inhibition of bacterial growth”. Further, the “increase of anti-ETEC activity on addition of bile acids / human bile to rifaximin” value in assay [2] (after 4 hours) is recorded as “greater than 70%”. The “Cell density, 16 μg/mL RIFAXIMIN” value in assay [2] (rifaximin alone, no bile acids, after 4 hours of incubation, control of the bile acid named in the row) is 6.6 ± 0.50 ×10^8 bacteria/milliliter of c and 4.9 ± 1.0 ×10^8 bacteria/milliliter of c. Further, the “percent decrease in total bacterial protein expression when bile acids added” value with E. coli H10407 stood at 59%. Moreover, in assay [9], the “in vitro minimal inhibitory concentration (MIC)” value is 32 to 128 µg/mL.

These data come from patent US20120196887A1, “METHODS AND COMPOSITIONS FOR IMPROVED RIFAMYCIN THERAPIES” (priority 2011, published 2012).
